Reference: patent US9340590B2 (priority 2011, dated 2016)
Positions of bridges follow the written chain, without caps; N, C: chain ends. Non-standard residues stand in square brackets, D forms with d. Residues, ends and D or L forms follow the SMILES beside them. Pra = C#CC[C@H](N)C(=O)O; Nva = CCC[C@H](N)C(=O)O; Abu = CC[C@H](N)C(=O)O

Tests used:
Test in all cases: cell-based
hNav1.5 = hNav1.5 (Homo sapiens, UniProt Q14524); settings: IonWorks Quattro, use-dependent block, hNav1.5; read-out: IWQ Use Nav1.5
hNav1.4 = hNav1.4 (Homo sapiens, UniProt P35499); settings: IonWorks Quattro, use-dependent block, hNav1.4; read-out: IWQ Use Nav1.4
hNav1.3 = hNav1.3 (Homo sapiens, UniProt Q9NY46); settings: IonWorks Quattro, use-dependent block, hNav1.3; read-out: IWQ Use Nav1.3
hNav1.7 = hNav1.7 (Homo sapiens, UniProt Q15858); assay type: cell-based; settings: for IC50: IonWorks Quattro, use-dependent block, hNav1.7, read-out: IWQ Use Nav1.7

hNav1.3, sequence (Q9NY46 whole entry, looked up): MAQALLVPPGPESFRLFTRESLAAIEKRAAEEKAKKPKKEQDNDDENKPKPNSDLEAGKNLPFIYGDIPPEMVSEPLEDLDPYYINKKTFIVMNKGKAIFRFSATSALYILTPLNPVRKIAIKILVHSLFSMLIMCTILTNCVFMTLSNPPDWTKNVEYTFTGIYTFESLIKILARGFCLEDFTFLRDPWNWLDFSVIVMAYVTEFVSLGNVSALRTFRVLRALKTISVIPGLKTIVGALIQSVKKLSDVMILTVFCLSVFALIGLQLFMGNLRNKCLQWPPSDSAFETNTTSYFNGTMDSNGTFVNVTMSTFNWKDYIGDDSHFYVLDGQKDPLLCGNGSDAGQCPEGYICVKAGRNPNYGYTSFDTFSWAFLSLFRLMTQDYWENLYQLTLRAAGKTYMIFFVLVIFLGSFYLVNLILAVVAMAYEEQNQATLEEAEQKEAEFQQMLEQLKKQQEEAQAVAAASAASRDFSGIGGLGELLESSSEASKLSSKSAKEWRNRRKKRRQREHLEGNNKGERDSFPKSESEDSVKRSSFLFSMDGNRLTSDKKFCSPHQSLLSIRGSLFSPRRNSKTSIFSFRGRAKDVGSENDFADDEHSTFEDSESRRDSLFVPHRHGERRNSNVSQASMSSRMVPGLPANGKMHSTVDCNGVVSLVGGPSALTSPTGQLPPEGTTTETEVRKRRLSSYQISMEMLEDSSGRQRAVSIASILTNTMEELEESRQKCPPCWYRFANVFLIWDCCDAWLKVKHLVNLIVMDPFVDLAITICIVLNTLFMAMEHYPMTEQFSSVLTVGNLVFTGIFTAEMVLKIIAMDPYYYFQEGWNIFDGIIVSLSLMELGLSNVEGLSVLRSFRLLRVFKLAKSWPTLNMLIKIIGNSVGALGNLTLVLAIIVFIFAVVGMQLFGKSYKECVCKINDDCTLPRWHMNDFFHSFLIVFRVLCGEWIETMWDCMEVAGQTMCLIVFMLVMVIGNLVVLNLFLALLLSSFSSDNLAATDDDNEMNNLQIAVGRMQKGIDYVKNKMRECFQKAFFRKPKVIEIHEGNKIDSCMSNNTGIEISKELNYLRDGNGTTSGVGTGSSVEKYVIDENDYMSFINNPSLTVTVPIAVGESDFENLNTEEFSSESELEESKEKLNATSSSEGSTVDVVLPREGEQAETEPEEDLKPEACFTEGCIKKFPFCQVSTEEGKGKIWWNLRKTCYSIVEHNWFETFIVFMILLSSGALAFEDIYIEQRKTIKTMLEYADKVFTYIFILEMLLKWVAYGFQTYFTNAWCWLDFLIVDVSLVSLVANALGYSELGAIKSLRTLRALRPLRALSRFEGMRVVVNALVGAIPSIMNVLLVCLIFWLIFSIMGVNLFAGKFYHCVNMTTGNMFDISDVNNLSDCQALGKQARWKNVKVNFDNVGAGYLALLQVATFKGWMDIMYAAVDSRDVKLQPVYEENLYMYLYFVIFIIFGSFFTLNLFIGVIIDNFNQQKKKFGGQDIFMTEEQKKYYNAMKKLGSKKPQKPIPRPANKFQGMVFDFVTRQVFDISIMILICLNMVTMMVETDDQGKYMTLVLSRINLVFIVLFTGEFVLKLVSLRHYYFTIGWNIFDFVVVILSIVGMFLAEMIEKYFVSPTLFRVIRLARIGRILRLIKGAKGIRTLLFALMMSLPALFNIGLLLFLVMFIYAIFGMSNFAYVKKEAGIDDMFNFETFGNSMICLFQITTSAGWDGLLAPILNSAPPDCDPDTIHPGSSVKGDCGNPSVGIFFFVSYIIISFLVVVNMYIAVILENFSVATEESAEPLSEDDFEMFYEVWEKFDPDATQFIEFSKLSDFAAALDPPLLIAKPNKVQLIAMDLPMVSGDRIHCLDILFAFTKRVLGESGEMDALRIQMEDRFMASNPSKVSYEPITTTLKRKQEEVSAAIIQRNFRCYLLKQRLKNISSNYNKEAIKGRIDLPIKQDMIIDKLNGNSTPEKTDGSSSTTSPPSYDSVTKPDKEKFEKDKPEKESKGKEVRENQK
hNav1.5, sequence (Q14524 whole entry, looked up): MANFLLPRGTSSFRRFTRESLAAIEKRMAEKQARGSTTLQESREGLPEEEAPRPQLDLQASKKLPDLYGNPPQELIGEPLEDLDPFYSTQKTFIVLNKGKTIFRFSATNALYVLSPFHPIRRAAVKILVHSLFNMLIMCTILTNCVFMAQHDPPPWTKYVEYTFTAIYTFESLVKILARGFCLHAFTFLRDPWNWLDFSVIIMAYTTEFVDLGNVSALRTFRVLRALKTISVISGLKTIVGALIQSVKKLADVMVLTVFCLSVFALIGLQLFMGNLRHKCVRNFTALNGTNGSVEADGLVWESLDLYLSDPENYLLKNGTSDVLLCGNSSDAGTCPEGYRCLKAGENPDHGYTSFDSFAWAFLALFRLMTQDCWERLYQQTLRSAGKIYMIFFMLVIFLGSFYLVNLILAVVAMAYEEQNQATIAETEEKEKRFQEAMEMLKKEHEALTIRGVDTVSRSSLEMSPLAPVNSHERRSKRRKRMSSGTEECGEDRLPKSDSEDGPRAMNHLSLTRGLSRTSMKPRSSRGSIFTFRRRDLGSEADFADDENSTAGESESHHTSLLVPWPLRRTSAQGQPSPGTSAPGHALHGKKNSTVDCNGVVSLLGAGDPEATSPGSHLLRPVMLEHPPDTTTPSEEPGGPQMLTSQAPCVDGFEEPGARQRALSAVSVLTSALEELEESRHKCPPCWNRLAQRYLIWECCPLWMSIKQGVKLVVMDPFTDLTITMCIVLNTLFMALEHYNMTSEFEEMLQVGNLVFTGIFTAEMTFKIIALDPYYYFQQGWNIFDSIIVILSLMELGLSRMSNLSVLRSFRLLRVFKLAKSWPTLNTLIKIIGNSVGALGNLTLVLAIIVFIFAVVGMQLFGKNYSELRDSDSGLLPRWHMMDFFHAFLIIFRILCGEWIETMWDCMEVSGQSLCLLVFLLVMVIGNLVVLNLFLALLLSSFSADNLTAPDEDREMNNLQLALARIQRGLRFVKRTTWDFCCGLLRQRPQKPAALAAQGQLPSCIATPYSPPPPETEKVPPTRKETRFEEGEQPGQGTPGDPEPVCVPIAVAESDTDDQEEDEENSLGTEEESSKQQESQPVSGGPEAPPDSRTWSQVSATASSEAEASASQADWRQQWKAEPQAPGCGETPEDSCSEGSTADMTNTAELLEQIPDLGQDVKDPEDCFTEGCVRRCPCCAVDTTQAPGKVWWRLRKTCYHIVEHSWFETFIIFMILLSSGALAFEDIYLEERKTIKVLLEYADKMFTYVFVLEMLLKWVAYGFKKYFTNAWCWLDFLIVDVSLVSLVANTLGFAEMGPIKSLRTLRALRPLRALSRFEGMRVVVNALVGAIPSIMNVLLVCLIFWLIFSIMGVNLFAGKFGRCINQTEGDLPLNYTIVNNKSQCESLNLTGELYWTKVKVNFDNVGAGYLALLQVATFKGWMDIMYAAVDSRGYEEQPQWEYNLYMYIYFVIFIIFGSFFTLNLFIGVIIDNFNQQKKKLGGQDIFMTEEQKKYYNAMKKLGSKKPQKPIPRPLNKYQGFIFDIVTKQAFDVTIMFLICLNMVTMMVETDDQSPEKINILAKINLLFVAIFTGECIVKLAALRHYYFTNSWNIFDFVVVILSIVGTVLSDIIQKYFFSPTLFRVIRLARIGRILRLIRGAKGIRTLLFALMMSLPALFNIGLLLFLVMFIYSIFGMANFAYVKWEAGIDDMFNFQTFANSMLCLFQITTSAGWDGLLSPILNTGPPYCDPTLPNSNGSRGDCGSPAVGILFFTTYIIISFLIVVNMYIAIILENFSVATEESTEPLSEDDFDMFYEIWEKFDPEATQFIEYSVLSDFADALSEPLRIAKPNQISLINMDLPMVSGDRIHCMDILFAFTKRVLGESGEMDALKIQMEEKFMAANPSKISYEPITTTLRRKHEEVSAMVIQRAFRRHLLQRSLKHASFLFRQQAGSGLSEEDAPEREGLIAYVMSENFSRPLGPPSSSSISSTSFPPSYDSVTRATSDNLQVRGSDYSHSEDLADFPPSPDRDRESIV

| Structure (SMILES) | IC50 (hNav1.5) [µM] | IC50 (hNav1.4) [µM] | IC50 (hNav1.3) [µM] | IC50 (hNav1.7) [µM] | Nav1.7/Nav1.3 (hNav1.7; ratio of IWQ Use values Nav1.7 to Nav1.3) | Nav1.7/Nav1.3 (hNav1.7; ratio of IWQ Use values, Nav1.7 over Nav1.3) |
| --- | --- | --- | --- | --- | --- | --- |
| CCC[C@H](NC(=O)CNC(=O)[C@H](CC(C)C)NC(=O)[C@H](CC)NC(=O)[C@@H](N)CC(=O)O)C(=O)N[C@@H](CC(C)C)C(=O)N[C@@H](CCCNC(=N)N)C(=O)N[C@@H](CCCCN)C(=O)N[C@H]1CSSC[C@@H]2NC(=O)[C@H](C(C)C)NC(=O)[C@H](CC(C)C)NC(=O)[C@H](CC(N)=O)NC(=O)[C@@H]3CCCN3C(=O)[C@H](CCCNC(=N)N)NC(=O)[C@H](CC)NC(=O)[C@H](CSSC[C@@H](C(=O)N[C@@H](CCCCN)C(=O)N[C@@H](Cc3ccc(O)cc3)C(=O)N[C@H](C(=O)N[C@@H](Cc3ccccc3)C(N)=O)C(C)C)NC(=O)[C@H](Cc3c[nH]c4ccccc34)NC(=O)[C@H](CCC(=O)O)NC(=O)[C@H](Cc3c[nH]cn3)NC(=O)[C@H]([C@@H](C)O)NC(=O)[C@H](CCCNC(=N)N)NC(=O)[C@H](CO)NC2=O)NC(=O)[C@H](CCCCN)NC(=O)[C@H](CC(=O)O)NC(=O)[C@H](CC(N)=O)NC(=O)[C@H](CC(=O)O)NC(=O)[C@@H]2CCCN2C(=O)[C@H]([C@@H](C)CC)NC1=O [compound 717] (H-D[Abu]LG[Nva]LRKCIPDNDKC[Abu]RPNLVCSRTHEWCKYVF-NH2; disulfide 9-23, 16-30) | > 50 | > 50 | > 5 | > 5 | – | – |
| CC[C@H](NC(=O)CNC(=O)[C@H](CC(C)C)NC(=O)[C@H](CC)NC(=O)[C@@H](N)CC(=O)O)C(=O)N[C@@H](CC(C)C)C(=O)N[C@@H](CCCNC(=N)N)C(=O)N[C@@H](CCCCN)C(=O)N[C@H]1CSSC[C@@H]2NC(=O)[C@H](C(C)C)NC(=O)[C@H](CC(C)C)NC(=O)[C@H](CC(N)=O)NC(=O)[C@@H]3CCCN3C(=O)[C@H](CCCNC(=N)N)NC(=O)[C@H](CC)NC(=O)[C@H](CSSC[C@@H](C(=O)N[C@@H](CCCCN)C(=O)N[C@@H](Cc3ccc(O)cc3)C(=O)N[C@H](C(=O)N[C@@H](Cc3ccccc3)C(N)=O)C(C)C)NC(=O)[C@H](Cc3c[nH]c4ccccc34)NC(=O)[C@H](CCC(=O)O)NC(=O)[C@H](Cc3c[nH]cn3)NC(=O)[C@H]([C@@H](C)O)NC(=O)[C@H](CCCNC(=N)N)NC(=O)[C@H](CO)NC2=O)NC(=O)[C@H](CCCCN)NC(=O)[C@H](CC(=O)O)NC(=O)[C@H](CC(N)=O)NC(=O)[C@H](CC(=O)O)NC(=O)[C@@H]2CCCN2C(=O)[C@H]([C@@H](C)CC)NC1=O [compound 718] (H-D[Abu]LG[Abu]LRKCIPDNDKC[Abu]RPNLVCSRTHEWCKYVF-NH2; disulfide 9-23, 16-30) | > 50 | > 50 | > 5 | 4.3 | – | – |
| CC[C@@H]1NC(=O)[C@@H]2CSSC[C@@H](C(=O)N[C@@H](CCCCN)C(=O)N[C@@H](Cc3ccc(O)cc3)C(=O)N[C@H](C(=O)N[C@@H](Cc3ccccc3)C(N)=O)C(C)C)NC(=O)[C@H](Cc3c[nH]c4ccccc34)NC(=O)[C@H](CCC(=O)O)NC(=O)[C@H](Cc3c[nH]cn3)NC(=O)[C@H]([C@@H](C)O)NC(=O)[C@H](CCCNC(=N)N)NC(=O)[C@H](CO)NC(=O)[C@H](CSSC[C@H](NC(=O)[C@H](CCCCN)NC(=O)[C@H](CCCNC(=N)N)NC(=O)[C@H](CC(C)C)NC(=O)[C@H](C)NC(=O)CNC(=O)[C@H](CC(C)C)NC(=O)[C@H](CC)NC(=O)[C@@H](N)CC(=O)O)C(=O)N[C@@H]([C@@H](C)CC)C(=O)N3CCC[C@H]3C(=O)N[C@@H](CC(=O)O)C(=O)N[C@@H](CC(N)=O)C(=O)N[C@@H](CC(=O)O)C(=O)N[C@@H](CCCCN)C(=O)N2)NC(=O)[C@H](C(C)C)NC(=O)[C@H](CC(C)C)NC(=O)[C@H](CC(N)=O)NC(=O)[C@@H]2CCCN2C(=O)[C@H](CCCNC(=N)N)NC1=O [compound 719] (H-D[Abu]LGALRKCIPDNDKC[Abu]RPNLVCSRTHEWCKYVF-NH2; disulfide 9-23, 16-30) | > 50 | > 50 | > 5 | 4.3 | – | – |
| CC[C@@H]1NC(=O)[C@@H]2CSSC[C@@H](C(=O)N[C@@H](CCCCN)C(=O)N[C@@H](Cc3ccc(O)cc3)C(=O)N[C@H](C(=O)N[C@@H](Cc3ccccc3)C(N)=O)C(C)C)NC(=O)[C@H](Cc3c[nH]c4ccccc34)NC(=O)[C@H](CCC(=O)O)NC(=O)[C@H](Cc3c[nH]cn3)NC(=O)[C@H]([C@@H](C)O)NC(=O)[C@H](CCCNC(=N)N)NC(=O)[C@H](CO)NC(=O)[C@H](CSSC[C@H](NC(=O)[C@H](CCCCN)NC(=O)[C@H](CCCNC(=N)N)NC(=O)[C@H](CC(C)C)NC(=O)[C@@H](NC(=O)CNC(=O)[C@H](CC(C)C)NC(=O)[C@H](CC)NC(=O)[C@@H](N)CC(=O)O)C(C)C)C(=O)N[C@@H]([C@@H](C)CC)C(=O)N3CCC[C@H]3C(=O)N[C@@H](CC(=O)O)C(=O)N[C@@H](CC(N)=O)C(=O)N[C@@H](CC(=O)O)C(=O)N[C@@H](CCCCN)C(=O)N2)NC(=O)[C@H](C(C)C)NC(=O)[C@H](CC(C)C)NC(=O)[C@H](CC(N)=O)NC(=O)[C@@H]2CCCN2C(=O)[C@H](CCCNC(=N)N)NC1=O [compound 720] (H-D[Abu]LGVLRKCIPDNDKC[Abu]RPNLVCSRTHEWCKYVF-NH2; disulfide 9-23, 16-30) | 33 | > 50 | > 5 | > 5 | – | – |
| C#CC[C@@H]1NC(=O)[C@H](CC(=O)O)NC(=O)[C@@H]2CCCN2C(=O)[C@H](CCC(=O)O)NC(=O)[C@@H]2CSSC[C@@H]3NC(=O)[C@H](C(C)C)NC(=O)[C@H](CC(C)C)NC(=O)[C@H](CC(N)=O)NC(=O)[C@@H]4CCCN4C(=O)[C@H](CCCNC(=N)N)NC(=O)[C@H](CSSC[C@H](NC(=O)[C@@H](N)CC(=O)O)C(=O)N[C@@H](CC(C)C)C(=O)NCC(=O)N[C@@H](C)C(=O)N[C@@H](CC(C)C)C(=O)N[C@@H](CCCNC(=N)N)C(=O)N[C@@H](CCCCN)C(=O)N2)NC(=O)[C@H](CSSC[C@@H](C(=O)N[C@@H](CCCCN)C(=O)N[C@@H](Cc2ccc(O)cc2)C(=O)N[C@H](C(=O)N[C@@H](Cc2ccccc2)C(N)=O)C(C)C)NC(=O)[C@H](Cc2c[nH]c4ccccc24)NC(=O)[C@H](CCCNC(=N)N)NC(=O)[C@H](Cc2c[nH]cn2)NC(=O)[C@H](CC(C)C)NC(=O)[C@H](CCCNC(=N)N)NC(=O)[C@H](CO)NC3=O)NC(=O)[C@H](CCCCN)NC(=O)[C@H](CC(=O)O)NC1=O [compound 800] (H-DCLGALRKCEPD[Pra]DKCCRPNLVCSRLHRWCKYVF-NH2; disulfide 2-17, 9-23, 16-30) | > 50 | > 50 | 1.4 | 0.7 | 0.5 | – |
| CC[C@H](C)[C@@H]1NC(=O)[C@@H]2CSSC[C@@H]3NC(=O)[C@H](C(C)C)NC(=O)[C@H](CC(C)C)NC(=O)[C@H](CC(N)=O)NC(=O)[C@@H]4CCCN4C(=O)[C@H](CCCNC(=N)N)NC(=O)[C@H](CSSC[C@H](NC(=O)[C@H](CC(=O)O)NC(=O)[C@H](CO)NC(=O)CN)C(=O)N[C@@H](CC(C)C)C(=O)NCC(=O)N[C@@H](C)C(=O)N[C@@H](CC(C)C)C(=O)N[C@@H](CCCNC(=N)N)C(=O)N[C@@H](CCCCN)C(=O)N2)NC(=O)[C@H](CSSC[C@@H](C(=O)N[C@@H](CCCCN)C(=O)N[C@@H](Cc2ccc(O)cc2)C(=O)N[C@H](C(=O)N[C@@H](Cc2ccccc2)C(=O)N[C@@H](Cc2c[nH]c4ccccc24)C(=O)O)C(C)C)NC(=O)[C@H](Cc2c[nH]c4ccccc24)NC(=O)[C@H](CCCNC(=N)N)NC(=O)[C@H](Cc2c[nH]cn2)NC(=O)[C@H]([C@@H](C)O)NC(=O)[C@H](CCCNC(=N)N)NC(=O)[C@H](CO)NC3=O)NC(=O)[C@H](CCCCN)NC(=O)[C@H](CC(=O)O)NC(=O)[C@H](CC(N)=O)NC(=O)[C@H](CC(=O)O)NC(=O)[C@@H]2CCCN2C1=O [compound 816] (H-GSDCLGALRKCIPDNDKCCRPNLVCSRTHRWCKYVFW-OH; disulfide 4-19, 11-25, 18-32) | > 5 | > 5 | > 5 | > 5 | – | – |
| CC[C@H](C)[C@@H]1NC(=O)[C@@H]2CSSC[C@@H]3NC(=O)[C@H](C(C)C)NC(=O)[C@H](CC(C)C)NC(=O)[C@H](CC(N)=O)NC(=O)[C@@H]4CCCN4C(=O)[C@H](CCCNC(=N)N)NC(=O)[C@H](CSSC[C@H](NC(=O)[C@H](CC(=O)O)NC(=O)[C@H](CO)NC(=O)CN)C(=O)N[C@@H](CC(C)C)C(=O)NCC(=O)N[C@@H](C)C(=O)N[C@@H](CC(C)C)C(=O)N[C@@H](CCCNC(=N)N)C(=O)N[C@@H](CCCCN)C(=O)N2)NC(=O)[C@H](CSSC[C@@H](C(=O)N[C@@H](CCCCN)C(=O)N[C@@H](Cc2ccc(O)cc2)C(=O)N[C@H](C(=O)N[C@@H](Cc2ccccc2)C(=O)N[C@@H](Cc2ccccc2)C(=O)O)C(C)C)NC(=O)[C@H](Cc2c[nH]c4ccccc24)NC(=O)[C@H](CCCNC(=N)N)NC(=O)[C@H](Cc2c[nH]cn2)NC(=O)[C@H]([C@@H](C)O)NC(=O)[C@H](CCCNC(=N)N)NC(=O)[C@H](CO)NC3=O)NC(=O)[C@H](CCCCN)NC(=O)[C@H](CC(=O)O)NC(=O)[C@H](CC(N)=O)NC(=O)[C@H](CC(=O)O)NC(=O)[C@@H]2CCCN2C1=O [compound 820] (H-GSDCLGALRKCIPDNDKCCRPNLVCSRTHRWCKYVFF-OH; disulfide 4-19, 11-25, 18-32) | > 5 | > 5 | 0.5 | 0.5 | – | 1.0 |
